Measurements as given in PMC8705538, “Discovery of SARS-CoV-2 Nsp14 and Nsp16 Methyltransferase Inhibitors by High-Throughput Virtual Screening” (Pharmaceuticals, 2021).
Where two headings read alike, the source gives them in different places.

How the values were obtained:
[1] = Cytotoxicity, neutral red uptake, HepG2; format: cell-based; conditions: human
Procedure: (§1) A549 human non-small cell lung cancer cell line, HepG2 hepatocarcinoma cells, and BALB/c 3T3 clone A31 murine fibroblast cell line for the study were obtained from ATCC (American Type Culture Collection, Manassas, VA, USA). Cells were propagated in DMEM medium (Sigma, D6046, Irvin, UK) supplemented with 1% penicillin (100 U/mL)–streptomycin (100 μg/mL) and 10% foetal bovine serum (Sigma, F7524, St Louis, MO, USA) in case of A549 and HepG2 or 10% calf serum (Sigma, C8056, St Louis, MO, USA) in case of BALB/c 3T3. All cultivations were performed in a humidified 5% CO2 atmosphere at 37 °C.
(§2) The cytotoxicity of the compounds was tested in A549, HepG2, and BALB/c3T3 cell lines by neutral red (NR) uptake assay. A549 and BALB/c3T3 cells were seeded in 96-well plates at a density of 8 × 10^3 cells per well, HepG2 at density 1.2 × 10^4 cells per well. After 24 h incubation, test compounds in a concentration range of 0.8 to 200 μM were added. Cultivation in the presence of test compounds was done for 48 h. Afterwards, the plates were washed with phosphate-buffered saline (PBS) (Sigma, D8537, Irvin, UK), and 25 µg/mL NR solution (Sigma, N2889, Irvin, UK) was added. In case of BALB/c 3T3 cells, NR was diluted in 5% foetal calf serum containing media, while for A549 and HepG2 cells, it was diluted in 5% foetal bovine serum containing media. After 3 h incubation, the plate was washed with PBS, and the NR taken up by viable cells was extracted using desorbing fixative (50% ethanol/1% acetic acid/49% water). Absorbance at 540 nm was measured using a Tecan M200 Infinite Pro microplate reader. Cytotoxicity was expressed as a concentration-dependent reduction of the uptake of NR, compared to the untreated controls, and the IC50 value for each compound was calculated.

[2] = Cytotoxicity, neutral red uptake, 3T3; format: cell-based, murine; conditions: mouse
Procedure: as §1, §2

[3] = molecular target: T1, human Glycine N-Methyltransferase (GNMT) (Homo sapiens, UniProt Q14749); experiment: HTRF methyltransferase selectivity assay, human GNMT; format: biochemical; conditions: for Ligand Efficiency (LE) Human (hMtase): estimated from IC50 values; for inhibition at 100 µM: read-out: Percent inhibition at 100 μM, Human
T1 construct: purchased MyBioSource MBS636160
T1 sequence (Q14749 1-295): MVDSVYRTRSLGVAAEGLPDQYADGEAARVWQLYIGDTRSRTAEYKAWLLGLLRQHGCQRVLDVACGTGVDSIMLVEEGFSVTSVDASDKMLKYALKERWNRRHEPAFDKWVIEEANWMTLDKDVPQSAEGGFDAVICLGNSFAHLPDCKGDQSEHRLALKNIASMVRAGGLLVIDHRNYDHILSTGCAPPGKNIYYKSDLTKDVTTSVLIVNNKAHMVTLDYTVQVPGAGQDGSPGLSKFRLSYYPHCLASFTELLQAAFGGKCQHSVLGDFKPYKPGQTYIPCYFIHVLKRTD

SARS-CoV-2 nsp16/nsp10 = SARS-CoV-2 nsp16/nsp10 (Severe acute respiratory syndrome coronavirus 2, UniProt P0DTD1); experiment: biochemical; conditions: for Ligand Efficiency (LE) nsp16: estimated from IC50 values; for inhibition at 100 µM: read-out: Percent inhibition at 100 μM, nsp16
[4] = Cytotoxicity, neutral red uptake, A549; format: cell-based; conditions: human
Procedure: as §1, §2

SARS-CoV-2 nsp14 = SARS-CoV-2 nsp14 (Severe acute respiratory syndrome coronavirus 2, UniProt P0DTD1); experiment: biochemical; conditions: for Ligand Efficiency (LE) nsp14: estimated from IC50 values; for inhibition at 100 µM: read-out: Percent inhibition at 100 μM, nsp14
A549 cell culture = experiment: Cell permeability testing (LC/MS/MS of cell lysates and media); format: in vitro ADME, human; conditions: for Cell Permeability, 2 × 10^4 Cells/L / Cell Permeability, 4 × 10^4 Cells/L: 24 h; for cell permeability (in words): A549
Procedure: To test cell permeability, each compound was added to A549 cell culture at a concentration of 20 μM and incubated for 24 h. Cells were seeded in 6-well plates at a density of 2 × 10^4 and 4 × 10^4 cells per well at concentrations 1 × 10^4 and 2 × 10^4 cells/mL media for the testing of each compound, each in three replicates. After the incubation, the cell cultivation media and cell lysates were collected. After the removal of media, cells were washed with ice-cold PBS (Sigma, D1408, Irvin, UK) and lysed for 30 min in 500 µL per well ice-cold RIPA buffer (Sigma, R0278, St Louis, MO, USA). Samples were stored at −80 °C until analysis.
The quantitative determination of tested compounds in cell lysates and culture media was performed on a Waters MICROMASS QUATTRO microTM tandem mass spectrometer combined with Acquity UPLC system. Acquity UPLC BEH C8 (2.1 × 50 mm × 1.7 μm) column was used at a flow rate of 0.25 mL/min. The column oven was set at 30 °C, and the sample injection volume was 5 μL. The mobile phase consisted of a combination of A (0.1% formic acid in water) and B (acetonitrile). The gradient elution program from 5% B to 98% B in 5 min was applied for analysis. Tandem mass spectrometer in positive electrospray mode was used for quantification. The TargetLynx software was applied to process LC/MS/MS data. Samples for LC/MS/MS analysis were prepared as follows: 200 μL of acetonitrile/methanol mixture (3:1 v/v) was add to 200 μL of each cell lysate and culture media sample. Then, the samples were centrifuged (10,000 rpm, 10 min), and the supernatants (300 μL) were removed from each sample and placed in vials for LC/MS/MS analysis. Calibration curves for all analytes were produced by analysis of standard solutions over a concentration range of 0.2 to 20 μM.

[5] = tested on: 3T3, A549, and HepG2 cell lines; experiment: Cytotoxicity, summary statements over the three cell lines; format: cell-based; conditions: 3T3, A549, HepG2
Procedure: as §2

[6] = HTRF, SAM 10 µM, glycine 5 mM, read-out: IC50 Human (hMtase, human glycine N-methyltransferase)
[7] = HTRF, SAM 10 µM, GpppG 4 µM, read-out: IC50 nsp14
[8] = 48 h, neutral red uptake, read-out: Cytotoxicity (CC50) HepG2
[9] = 48 h, neutral red uptake, read-out: Cytotoxicity (CC50) 3T3
[10] = 48 h, neutral red uptake, read-out: Cytotoxicity (CC50) A549
[11] = A549, compound 20 μM, LOQ 0.2 μM or 1%
[12] = HTRF, nsp16/nsp10, SAM 10 µM, m7GpppA-RNA, read-out: IC50 nsp16

Compound	CC50 at 48 h [1] [µM]	CC50 at 48 h [2] [µM]	IC50 [3, 6] [µM]	Ligand Efficiency (LE) Human (hMtase) [3] [kcal/mol]	IC50 (SARS-CoV-2 nsp16/nsp10) [µM]	Ligand Efficiency (LE) nsp16 (SARS-CoV-2 nsp16/nsp10) [kcal/mol]	CC50 at 48 h [4] [µM]	IC50 (SARS-CoV-2 nsp14; [7]) [µM]	Ligand Efficiency (LE) nsp14 (SARS-CoV-2 nsp14) [kcal/mol]	Cell Permeability, 2 × 10^4 Cells/L (A549 cell culture; human, 20 μM) [%]	Cell Permeability, 4 × 10^4 Cells/L (A549 cell culture; human, 20 μM) [%]	CC50 at 48 h [1, 8] [µM]	CC50 at 48 h [2, 9] [µM]	IC50 [3] [µM]	inhibition at 100 µM [3] [%]	inhibition at 100 µM (SARS-CoV-2 nsp16/nsp10) [%]	CC50 at 48 h [4, 10] [µM]	IC50 (SARS-CoV-2 nsp14) [µM]	Cell Permeability, 2 × 10^4 Cells/L (A549 cell culture; [11])	Cell Permeability, 4 × 10^4 Cells/L (A549 cell culture; [11])	further results
CSC[C@H]1O[C@@H](n2cnc3c(N)ncnc32)[C@H](O)[C@@H]1O [ZINC4228245]	> 200	> 200	1.8	0.39	1.02	0.41	> 200	1.4	0.40	0.7	0.8										
O=C(Cn1c(=O)[nH]c2c(-c3ccccc3)c[nH]c2c1=O)NCc1cccnc1 [ZINC33037945]				0.19					0.19			> 100	> 100	125 ± 6	53 ± 8	-8 ± 6	> 100	106 ± 5	17.9%	30.8%	cytotoxicity (in words) [5]: no measurable cytotoxicity; IC50 nsp16 (SARS-CoV-2 nsp16/nsp10; HTRF, nsp16/nsp10, SAM 10 µM, m7GpppA-RNA): inactive; inhibition at 100 µM (SARS-CoV-2 nsp14): 56 ± 5%; cell permeability (in words) (A549 cell culture): good cell permeability
O=C(Cc1csc(SCC(=O)c2ccccc2)n1)Nc1cccc2nsnc12 [ZINC38661771]				0.21	51 ± 2	0.21			0.19			93.8	116	58 ± 3	63 ± 5	69 ± 8	97	118 ± 4	<LOQ	<LOQ	concentration at which cytotoxicity was shown [5]: ≈ 100 μM; inhibition at 100 µM (SARS-CoV-2 nsp14): 58 ± 7%; cell permeability (in words) (A549 cell culture): low level of cell permeability
Nc1ncnc2c1ncn2[C@@H]1O[C@H](C[C@@H](N)CC[C@H](N)C(=O)O)[C@@H](O)[C@H]1O [Sinefungin, reference compound]												> 100	99.2				72.9		<LOD	<LOD	
Cc1ccc(S(=O)(=O)OC[C@H]2O[C@@H](n3cnc4c(N)ncnc43)[C@H](O)[C@@H]2O)cc1 [ZINC3861767]	> 200	> 200	2.8	0.26		0.28	> 200	1.5	0.27	2.2	0.5										IC50 (SARS-CoV-2 nsp16/nsp10; [12]): 1.14 µM
CCNC(=O)NCCSC[C@H]1O[C@@H](n2cnc3c(N)ncnc32)[C@H](O)[C@@H]1O [ZINC473112262]	> 100	> 100	5.8	0.26		0.28	> 100	3.1	0.28	0.3	0.3										IC50 (SARS-CoV-2 nsp16/nsp10; [12]): 2.46 µM
O=C(CCCn1cncn1)N1CCCC(c2nc3ccccc3s2)C1 (stereo not shown) [ZINC23398144]				0.20	197 ± 9	0.21			0.23			> 100	> 100	315 ± 5	21 ± 2	39 ± 7	> 100	77 ± 3	0.7%	0.6%	cytotoxicity (in words) [5]: no measurable cytotoxicity; inhibition at 100 µM (SARS-CoV-2 nsp14): 57 ± 8%; cell permeability (in words) (A549 cell culture): low level of cell permeability
